In patent US20240207268A1, “PYRAZOLYLPYRIMIDINES FOR TREATING MALIGNANT SOLID TUMOR” (BIOTHERYX, INC., priority 2021, published 2024):

Key:
[1] = Solubility in water; format: physicochemical; details: in water at 25° C.
[2] = GLP 28-day oral toxicology study of compound A22 in Sprague Dawley rats; format: in vivo; details: rat, in vivo, once daily oral gavage, di-HCl or di-p-toluenesulfonate salt, read-out: NOAEL (no-observed-adverse-effect-level) dose
Procedure: (§1) The toxicology studies of compound A22 were performed in Sprague Dawley rats and Beagle dogs. In GLP, 28-day (once daily, 7 days per week) studies, compound A22 was administered as a di-HCl salt or di-p-toluenesulfonate salt by oral gavage. The results are summarized in Tables 1 and 2, where HNSTD is highest nonseverely toxic dose; NOAEL is no-observed-adverse-effect-level; and STDio is severely toxic dose in 10%.

[3] = tested on: Sprague Dawley rats; assay: as above; format: in vivo; details: once daily oral gavage, di-HCl or di-p-toluenesulfonate salt
Procedure: as §1

[4] = Steady state toxicokinetics of compound A22 in Sprague Dawley rats (28-day study); details: rat, in vivo, oral gavage
Procedure: as §1

[5] = GLP 28-day oral toxicology study of compound A22 in Beagle dogs; format: in vivo; details: dog, in vivo, once daily oral gavage, di-HCl or di-p-toluenesulfonate salt, read-out: NOAEL (no-observed-adverse-effect-level) dose
Procedure: as §1

[6] = tested on: Beagle dogs; assay: as above; format: in vivo; details: once daily oral gavage, di-HCl or di-p-toluenesulfonate salt
Procedure: as §1

[7] = Steady state toxicokinetics of compound A22 in Beagle dogs (28-day study); details: dog, in vivo, oral gavage
Procedure: as §1

[8] = female rats, 0.7 mg/kg/day (NOAEL)
[9] = female rats, 2.5 mg/kg/day (STD10)
[10] = male rats, 0.7 mg/kg/day (NOAEL)
[11] = male rats, 2.5 mg/kg/day (STD10)
[12] = female dogs, 0.06 mg/kg/day (NOAEL)
[13] = female dogs, 0.2 mg/kg/day (HNSTD)
[14] = male dogs, 0.06 mg/kg/day (NOAEL)
[15] = male dogs, 0.2 mg/kg/day (HNSTD)

Question: For `Cc1ccc(S(=O)(=O)O)cc1.Cc1ccc(S(=O)(=O)O)cc1.Cn1ncc(-c2nc(N[C@H]3CC[C@H](N)CC3)ncc2Cl)c1CC1CC1` [crystalline di-p-toluenesulfonate salt, di-p-toluensulfonate of (1r,4r)-N^1-(5-chloro-4-(5-(cyclopropylmethyl)-1-methyl-1H-pyrazol-4-yl)pyrimidin-2-yl)cyclohexane-1,4-diamine], which solubility [1] is on record?
Answer: about 2 mg/mL

Question: For `Cn1ncc(-c2nc(N[C@H]3CC[C@H](N)CC3)ncc2Cl)c1CC1CC1` [A22, (1r,4r)-N^1-(5-chloro-4-(5-(cyclopropylmethyl)-1-methyl-1H-pyrazol-4-yl)pyrimidin-2-yl)cyclohexane-1,4-diamine], which NOAEL at 28 day [2] is on record?
Answer: 0.7 mg/kg/day

Question: What about the “STD10 (severely toxic dose in 10%) dose” value [3] of the same compound?
Answer: 2.5 mg/kg/day

Question: And the AUC(0-t) [4, 8]?
Answer: 160 ng·h/mL

Question: And the Cmax [4, 8]?
Answer: 13.6 ng/mL

Question: And the AUC(0-t) [4, 9]?
Answer: 2390 ng·h/mL

Question: And the Cmax [4, 9]?
Answer: 156 ng/mL

Question: And the AUC(0-t) [4, 10]?
Answer: 152 ng·h/mL

Question: What about the Cmax [4, 10] of the same compound?
Answer: 13.7 ng/mL

Question: And the AUC(0-t) [4, 11]?
Answer: 2520 ng·h/mL

Question: And the Cmax [4, 11]?
Answer: 184 ng/mL

Question: What about the NOAEL at 28 day [5] of the same compound?
Answer: 0.06 mg/kg/day

Question: What about the “HNSTD (highest nonseverely toxic dose)” value [6] of the same compound?
Answer: 0.2 mg/kg/day

Question: What about the AUC(0-t) [7, 12] of the same compound?
Answer: 129 ng·h/mL

Question: And the Cmax [7, 12]?
Answer: 7.55 ng/mL

Question: And the AUC(0-t) [7, 13]?
Answer: 471 ng·h/mL

Question: What about the Cmax [7, 13] of the same compound?
Answer: 30.6 ng/mL

Question: And the AUC(0-t) [7, 14]?
Answer: 102 ng·h/mL

Question: And the Cmax [7, 14]?
Answer: 6.38 ng/mL

Question: And the AUC(0-t) [7, 15]?
Answer: 567 ng·h/mL

Question: And the Cmax [7, 15]?
Answer: 34.4 ng/mL
